In the supplement of paper PMC10307832:

Key:
Experiment in all cases: relative viability (nuclei count vs DMSO), 5 days (fraction); higher = more cells survive
[1] = test system: LC-2-ad
Summary of the method: (§1)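 Lung cancer cell lines were pin-tool dosed in 1536-well plates on the day after seeding, with either a lone drug or a fixed anchor-drug dose plus five library-drug doses (not always all listed) in √10 steps. Nuclei were counted on 4× images after 5 days. Relative viability is the ratio of treated-well to vehicle-well nuclei counts, with each value a median of duplicate plates.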

[2] = test system: NCI-H2342
Summary of the method: as §1

[3] = test system: NCI-H2228
Summary of the method: as §1

[4] = test system: NCI-H1915
Summary of the method: as §1

[5] = test system: SK-LU-1
Summary of the method: as §1

[6] = test system: HCC-15
Summary of the method: as §1

[7] = test system: LXF-289
Summary of the method: as §1

[8] = test system: SW 1573
Summary of the method: as §1

[9] = test system: NCI-H647
Summary of the method: as §1

[10] = test system: LOU-NH91
Summary of the method: as §1

[11] = test system: NCI-H522
Summary of the method: as §1

[12] = test system: RERF-LC-KJ
Summary of the method: as §1

SMILES: Clc1ccc(Nc2nnc(Cc3ccncc3)c3ccccc23)cc1 [Vatalanib] + N=C(N)NC(=N)NCCc1ccccc1 [Phenformin] (partner 250 µM)
- relative viability ([1]; first compound 0.04 µM): 0.652
- relative viability ([1]; first compound 0.1265 µM): 0.553
- relative viability ([1]; first compound 1.265 µM): 0.517
- relative viability ([1]; first compound 4 µM): 0.55
- relative viability ([2]; first compound 0.04 µM): 0.573
- relative viability ([2]; first compound 0.1265 µM): 0.477
- relative viability ([2]; first compound 0.4 µM): 0.461
- relative viability ([2]; first compound 1.265 µM): 0.652
- relative viability ([2]; first compound 4 µM): 0.53
- relative viability ([3]; first compound 0.04 µM): 0.364
- relative viability ([3]; first compound 0.1265 µM): 0.317
- relative viability ([3]; first compound 0.4 µM): 0.335
- relative viability ([3]; first compound 1.265 µM): 0.366
- relative viability ([3]; first compound 4 µM): 0.322
- relative viability ([4]; first compound 0.04 µM): 0.374
- relative viability ([4]; first compound 0.1265 µM): 0.345
- relative viability ([4]; first compound 0.4 µM): 0.399
- relative viability ([4]; first compound 1.265 µM): 0.38
- relative viability ([4]; first compound 4 µM): 0.371
- relative viability ([5]; first compound 0.04 µM): 0.631
- relative viability ([5]; first compound 0.1265 µM): 0.462
- relative viability ([5]; first compound 0.4 µM): 0.663
- relative viability ([5]; first compound 1.265 µM): 0.494
- relative viability ([5]; first compound 4 µM): 0.52
- relative viability ([6]; first compound 0.04 µM): 0.487
- relative viability ([6]; first compound 0.1265 µM): 0.46
- relative viability ([6]; first compound 0.4 µM): 0.441
- relative viability ([6]; first compound 1.265 µM): 0.443
- relative viability ([6]; first compound 4 µM): 0.457
- relative viability ([7]; first compound 0.04 µM): 0.505
- relative viability ([7]; first compound 0.1265 µM): 0.465
- relative viability ([7]; first compound 0.4 µM): 0.558
- relative viability ([7]; first compound 1.265 µM): 0.53
- relative viability ([7]; first compound 4 µM): 0.539
- relative viability ([8]; first compound 0.04 µM): 0.402
- relative viability ([8]; first compound 0.1265 µM): 0.374
- relative viability ([8]; first compound 0.4 µM): 0.368
- relative viability ([8]; first compound 1.265 µM): 0.324
- relative viability ([8]; first compound 4 µM): 0.347
- relative viability ([9]; first compound 0.04 µM): 0.466
- relative viability ([9]; first compound 0.1265 µM): 0.562
- relative viability ([9]; first compound 0.4 µM): 0.521
- relative viability ([9]; first compound 1.265 µM): 0.401
- relative viability ([9]; first compound 4 µM): 0.54
- relative viability ([10]; first compound 0.04 µM): 0.694
- relative viability ([10]; first compound 0.1265 µM): 0.679
- relative viability ([10]; first compound 1.265 µM): 0.697
- relative viability ([10]; first compound 4 µM): 0.668
- relative viability ([11]; first compound 0.04 µM): 0.699
- relative viability ([11]; first compound 0.1265 µM): 0.531
- relative viability ([11]; first compound 0.4 µM): 0.673
- relative viability ([11]; first compound 1.265 µM): 0.623
- relative viability ([11]; first compound 4 µM): 0.597
- relative viability ([12]; first compound 0.04 µM): 0.479
- relative viability ([12]; first compound 0.1265 µM): 0.41
- relative viability ([12]; first compound 0.4 µM): 0.443
- relative viability ([12]; first compound 1.265 µM): 0.341
- relative viability ([12]; first compound 4 µM): 0.425
